Where two headings read alike, the source gives them in different places.
Assays:
in vitro [1] = details: African green monkey
[2] = test system: wild-type ZIKV (Ugandan MR766 strain) in Vero cells; experiment: ZIKV cytopathic effect (CPE) inhibition qHTS assay, CellTiter-Glo readout; type: cell-based, Zika virus; details: for IC50: read-out: ZIKV-infection (CPE, ZIKV Antiviral Assays), IC50
in vitro [3] = details: human
[4] = test system: ZIKV-RLuc (Cambodian strain FSS13025); experiment: microbe, parasite or virus in culture; type: cell-based, Zika virus; details: Zika virus, Vero, 48 h, read-out: Rluc-ZIKV (ZIKV Antiviral Assays), IC50
[5] = test system: caspase-3 activity induced by ZIKV in Vero cells; experiment: cells; type: cell-based; details: Zika virus, read-out: Caspase 3 (ZIKV Antiviral Assays), IC50
[6] = test system: ZIKV-mCherry (Cambodian strain FSS13025); experiment: microbe, parasite or virus in culture; type: cell-based, Zika virus; details: for AC50: Zika virus, Vero
[7] = test system: DENV (Dengue virus type 2, strain New Guinea C)
[8] = Zika virus, Vero, read-out: Log AC50 (M) (converted)
[9] = read-out: Log AC50 (M) (converted)

Row | SMILES | CC50 at 48 h (in vitro [1]) [µM] | CC50 (in vitro [3]) [µM] | IC50 [4] [µM] | CC-v2 (curve class of the dose response curve) [6] | Efficacy (difference between neutral response and maximum compound response) [6] | Max Resp (difference between neutral response and response at highest compound concentration) [6] | CC50 (in vitro [1]) [µM] | CC-v2 (curve class classification of the dose response curve) [2] | Efficacy [2] | AC50 ([2]; Zika virus, Vero) [M] | IC50 ([2]; Zika virus, Vero, 48 h) [µM] | AC50 [2, 8] [M] | IC50 ([5]; Vero, 48 h) [µM] | AC50 [6] [M] | AC50 [6, 9] [M] | CC50 at 48 h (in vitro [1]; Vero cells) [µM] | other results
1 | C[C@H]1CC[C@@]2(OC1)O[C@H]1CC3C4CC=C5C[C@H](O)C[C@@H](O[C@@H]6O[C@@H](C)[C@H](O)[C@@H](O)[C@H]6O[C@@H]6O[C@@H](C)[C@H](O)[C@@H](O)[C@H]6O)[C@]5(C)C4CC[C@]3(C)[C@H]1[C@@H]2C (some centres unmarked) [NCGC00380128-01, Ophiopogonin B] | > 50 | > 30 | 8.74 | -1.4 | -59.028 | -100.132 |  |  |  |  |  |  |  |  |  |  | AC50 ([2]; Zika virus, Vero, from Hill fit of the response curve, 50% of maximum activity response, 194 cherry-picked compounds, protocol name not given, read-out: AC50): 1.72e-05 M; AC50 ([2]; Zika virus, Vero, potency in log units (Molar) from Hill fit of the response curve, 194 cherry-picked compounds, protocol name not given, read-out: Log AC50 (converted)): 1.72e-05 M; IC50 ([2]; Zika virus, Vero cells, wild-type ZIKV MOI 1, 48 hr, unit inferred): 17.2 µM; CC-v2 (curve class classification of the dose response curve) ([2]; curve class v2 (Inglese et al. 2006)): -2.2; Efficacy ([2]; difference between neutral response and maximum compound response): -28.987; IC50 ([5]; ZIKV-infected Vero cells, 48 hr, unit inferred): > 48 µM
2 | C=C(CO)[C@@]12O[C@@H]1[C@@]1(C)C(=CC2=O)CC[C@@H](O)[C@@H]1C [NCGC00380396-01] |  | > 30 | 4.14 | -1.2 | -43.557 | -98.628 | > 50 | -1.2 | -65.778 | 8.2e-06 | 8.2 | 8.2e-06 | 0.01 | 1.34e-06 | 1.34e-06 |  | 
3 | CCC(C)C1NC(=O)C(C(C)=O)=C1O (centres unmarked) [NCGC00168879-02] |  | > 30 | 12 | -1.2 | -63.104 | -99.611 | > 50 | -1.2 | -73.15 | 2.11e-05 | 21.1 | 2.11e-05 | 3.82 | 2.17e-05 | 2.17e-05 |  | 
4 | COc1ccc([C@H]2OC[C@H]3O[C@@H](O[C@H]4[C@@H]2NC[C@@H]4O)[C@H](O)[C@H]3O)cc1 [NCGC00380307-01] |  | > 30 | 2.28 | -1.2 | -48.259 | -100.305 |  | -1.2 | -66.527 | 2.27e-05 | 22.7 | 2.27e-05 | 6.46 | 1.31e-07 | 1.31e-07 | > 50 | 
5 | O=C(O)Cc1cc(I)c(Oc2ccc(O)c(I)c2)c(I)c1 [NCGC00016227-08] | > 50 | > 30 | 23.3 | -1.3 | -57.778 | -100.305 |  |  | -29.653 | 2.91e-05 | 29.1 | 2.91e-05 | > 48 | 1.5e-05 | 1.5e-05 |  | 
6 | CC1(C)CC2C(O)C3=C(CC(C)(O)C2C1)C(=O)OC3 (centres unmarked) [NCGC00385131-01] |  | > 30 | 0.02 | -1.2 | -69.698 | -44.202 |  |  | -83.269 | 2.31e-05 | 23.1 |  | 8.31 | 2.67e-09 | 2.67e-09 | > 50 | Curve class [2]: -3; AC50 ([2]; Zika virus, Vero, read-out: Log AC50 (converted)): 2.31e-05 M; Emax ([2]; Zika virus, Vero, read-out: Max response): 3.01%; ZIKV active Yes/No (ZIKV): No; YFV active Yes/No (YFV (YFV 17D)): No; WHV active Yes/No (WNV (Kern515/WN02)): No; DENV active Yes/No [7]: No

From PMC8765781, “A platform of assays for the discovery of anti-Zika small-molecules with activity in a 3D-bioprinted outer-blood-retina model” (PLoS ONE, 2022)
